Test results taken from PubChem BioAssay AID1645865 (Buhrlage Lab, Dana-Farber Cancer Institute and Novartis …, 2021).
Active and inactive are the calls of the source.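 How the source made its calls: active means maximal inhibition of the USP30 enzyme reaching 30% or more across the dose series; inactive means the rest.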

These compounds were tested against Ubiquitin carboxyl-terminal hydrolase 30 (Homo sapiens) (UniProt Q70CQ3) (assay: ubiquitin-specific protease 30 DUB inhibitors, concentration-effect, biochemical, validation of primary actives (AID 1645865)). Details: purified USP30, Ub-rhodamine cleavage, fluorescence, 2 h.
Ubiquitin carboxyl-terminal hydrolase 30 (Homo sapiens), sequence (Q70CQ3 whole entry, looked up): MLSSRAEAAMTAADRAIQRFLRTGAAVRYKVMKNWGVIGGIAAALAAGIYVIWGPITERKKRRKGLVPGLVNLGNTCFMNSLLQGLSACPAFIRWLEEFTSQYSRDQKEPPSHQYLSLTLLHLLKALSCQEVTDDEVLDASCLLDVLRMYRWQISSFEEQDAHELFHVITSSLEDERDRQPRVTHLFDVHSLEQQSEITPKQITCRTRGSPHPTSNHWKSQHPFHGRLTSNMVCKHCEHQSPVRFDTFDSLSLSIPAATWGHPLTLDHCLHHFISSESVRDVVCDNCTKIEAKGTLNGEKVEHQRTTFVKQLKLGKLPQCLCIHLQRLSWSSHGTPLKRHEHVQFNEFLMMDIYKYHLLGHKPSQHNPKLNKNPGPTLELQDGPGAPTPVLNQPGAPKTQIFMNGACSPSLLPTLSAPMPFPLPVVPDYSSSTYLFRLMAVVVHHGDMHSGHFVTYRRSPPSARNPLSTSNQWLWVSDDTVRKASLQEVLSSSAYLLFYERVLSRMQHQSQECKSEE
With `CCCC(=O)Nc1ccc(SCc2nnc(-c3ccccc3)o2)cc1` the IC50 was > 50 µM (inactive). Compound `COc1ccc(C(=O)C2CC(=O)Nc3c2c(C)nn3-c2ccc(Br)cc2)cc1` (stereo not drawn) has an IC50 of 3.36 µM. With `CCNc1nc(SCC(C)=O)nc2sc3c(c12)CCC(C)C3` (stereo not drawn) the IC50 was > 50 µM (inactive). `COc1ccc(OCCn2c(C3CC(=O)N(c4cccc(C)c4)C3)nc3ccccc32)cc1` (stereo not drawn) gave an IC50 of 0.356 µM. With `Fc1ccc(Cn2ccc(-c3cnc(-c4ccccc4)s3)n2)cc1` the IC50 was > 50 µM (inactive). In the case of `COc1ccc(C(C)=O)cc1CC(=O)Nc1nc2ccccc2[nH]1`, the IC50 is reported as > 50 µM (inactive). In the case of `Cc1ccc(C(=O)NCc2ccc(C(=O)Nc3cccc(C)c3)o2)cc1`, the IC50 is reported as 26.9 µM. With `Cc1ccc(C(=O)NCC(=O)Nc2nc3ccccc3[nH]2)c(C)c1` the IC50 was 39.6 µM. `Cc1cccc(OCCn2c(CCNC(=O)C3CCCCC3)nc3ccccc32)c1` gave an IC50 of 20.2 µM. `CC1CC[C@]2(NC1)O[C@H]1C[C@H]3[C@@H]4CC[C@H]5C[C@@H](O[C@@H]6O[C@H](CO)[C@H](O[C@@H]7O[C@H](CO)[C@@H](O)[C@H](O[C@@H]8OC[C@@H](O)[C@H](O)[C@H]8O)[C@H]7O[C@@H]7O[C@H](CO)[C@@H](O)[C@H](O)[C@H]7O)[C@H](O)[C@H]6O)CC[C@]5(C)[C@H]4CC[C@]3(C)[C@H]1[C@@H]2C` (stereo partly drawn) showed an IC50 of 39.5 µM. Compound `COc1ccc(C2C(C(=O)Nc3ccccc3OC)=C(C)Nc3nnnn32)cc1Br` (stereo not drawn) has an IC50 of 27.9 µM. `CCn1c(SCC(=O)N2c3ccccc3CC2C)nnc1-c1ccc2c(c1)OCCO2` (stereo not drawn) gave an IC50 of 23.2 µM. `O=C(CC1C(=O)Nc2nc(-c3ccccc3)nn21)Nc1cccc2ccccc12` (stereo not drawn) showed an IC50 of 4.38 µM. `NS(=O)(=O)c1cc(C(=O)OCC(=O)NC2CCCc3ccccc32)ccc1Cl` (stereo not drawn) was tested, and the IC50 was > 50 µM (inactive). In the case of `Cc1nc(N2CCCC2)ncc1-c1cc(=O)[nH]c(N2CCc3ccccc3C2)n1`, the IC50 is reported as 24.4 µM. In the case of `Cc1nc(-c2ccccc2F)sc1C(=O)Nc1cccnc1`, the IC50 is reported as > 50 µM (inactive). Work on `CC(C)CCN1C(=O)C2C(C(=O)Nc3ccc(Oc4ccccc4)cc3)C3C=CC2(O3)C1C(=O)NC1CCCCC1` (stereo not drawn) yielded an IC50 of 32.5 µM. For `Cc1nnc(C(=O)Nc2ccc(C(=O)NCc3ccccc3C)cc2)s1`, the IC50 was 26.8 µM. Compound `Cc1ccc(CN2CCCn3nc(C(=O)NCc4ccccc4C)cc3C2=O)cc1` has an IC50 of 31.5 µM. Work on `Cc1ccc(-c2cn(CC(=O)N3CCN(c4ccccn4)CC3)c(=O)o2)cc1` yielded an IC50 of 12.3 µM. `COc1ccc(-n2cc(C(=O)NCc3ccc4c(c3)OCO4)c3ccccc3c2=O)cc1` showed an IC50 of 31.9 µM. With `O=S1(=O)CCN(CC2CCCO2)c2c(Oc3ccccc3)nc(F)c(Cl)c21` (stereo not drawn) the IC50 was > 50 µM (inactive). `O=C(Cc1nnc2c(-c3nc(C4CC4)no3)cccn12)Nc1ccccc1` was tested, and the IC50 was 26.8 µM. For `Cc1cc(C(=O)N2CCOC3(CC=CCN(CCc4ccccc4)C3=O)C2)n2nccc2n1` (stereo not drawn), the IC50 was > 50 µM (inactive). `COc1ccccc1NC(=O)c1cc(-c2ccccn2)nc2ccccc12` showed an IC50 of 16.5 µM. In the case of `CNc1nc2c(c(=O)n1Cc1ccccc1)CN(C(=O)c1ccc(CN)cc1)CC2`, the IC50 is reported as 42.8 µM. With `CCC(=O)Nc1cccnc1-c1ccc(C(=O)Nc2cccc(OC)c2)cc1` the IC50 was > 50 µM (inactive). With `CC1CCN(c2cc(-n3cnc(C(=O)N4CCCCC4)c3)ncn2)CC1` the IC50 was > 50 µM (inactive). For `Cc1cc(O)cc2cc3c(c(O)c12)C(=O)CCC3O` (stereo not drawn), the IC50 was > 50 µM (inactive). `Cc1ccc(CN2C(=O)c3cc4ccccc4n3CC2(C)C(=O)NCc2ccccc2)o1` (stereo not drawn) showed an IC50 of 14.8 µM. For `O=C(NCc1ccncc1)C1CCN(c2cncnc2N2CCCCC2)CC1`, the IC50 was > 50 µM (inactive). With `CC(C)NC(=O)Cn1ccn2nc(-c3ccc(Cl)cc3)cc2c1=O` the IC50 was 3.6 µM. Work on `COc1ccc(Nc2nc3c(S(=O)(=O)c4ccc(C)cc4)nnn3c3ccsc23)c(OC)c1` yielded an IC50 of 0.401 µM. For `Cc1cc(O)c2c3c(c(O)c4c(c13)O[C@@H](C)C4(C)C)C(=O)C2=O`, the IC50 was 35.1 µM. `Cc1cc(=O)n(CC(=O)Nc2ccccc2C)c(Nc2ccc(F)cc2)n1` showed an IC50 of 11.2 µM. With `O=C(COc1ccc(Cl)cc1)NCc1nnc(SCC(=O)NCc2ccc3c(c2)OCO3)o1` the IC50 was 25.8 µM. With `O=C(CCc1nnc2n(Cc3ccc(F)cc3)c(=O)c3ccccc3n12)N1CCN(c2ccccn2)CC1` the IC50 was > 50 µM (inactive). For `O=C(CSc1nnc(CNC(=O)c2ccccc2F)o1)Nc1ccc(OC(F)(F)F)cc1`, the IC50 was 26.5 µM. In the case of `CCOC(=O)c1cccc(NC(=O)Nc2cccn3nc(C)nc23)c1`, the IC50 is reported as > 50 µM (inactive). Work on `Cc1ccc(-n2cc3c(N4CCCC(C(=O)NCC5CCCCC5)C4)ncnc3n2)cc1` (stereo not drawn) yielded an IC50 of 40.7 µM. In the case of `N#Cc1ccc(Cc2ncc(C(F)(F)F)cc2Cl)s1`, the IC50 is reported as > 50 µM (inactive). In the case of `Cc1ccc(C(=O)N2CCCC3(C2)Nc2cccnc2NC3=NC2CCCC2)s1` (stereo not drawn), the IC50 is reported as > 50 µM (inactive). For `COc1ccc(C2CC(c3ccc(C)cc3)N(C(=O)C3CC3)c3ncnn32)cc1` (stereo not drawn), the IC50 was > 50 µM (inactive). `O=C(CCc1ccccc1)N(CC1CCCO1)c1nc2ccccc2s1` (stereo not drawn) showed an IC50 of 37.3 µM. In the case of `Cc1cc(C)cc(-n2cnc3cc(C(=O)NCCC4=CCCCC4)ccc32)c1`, the IC50 is reported as > 50 µM (inactive). `CCN(CC)c1cc(C)c2cc(NC(=O)c3ccncc3)ccc2n1` was tested, and the IC50 was > 50 µM (inactive). `Cc1cc(C(=O)CSc2nc3ccccc3[nH]2)c(C)n1Cc1ccco1` was tested, and the IC50 was > 50 µM (inactive). `CCNc1oc(-c2ccc(S(=O)(=O)N3CCCCC3)cc2)nc1C#N` gave an IC50 of 21.9 µM.
